1 compound from patent publication US9706790B2, “Compounds, compositions, and methods for reducing or eliminating bitter taste” (CHROMOCELL CORPORATION, priority 2011, dated 2017) can be followed below.

The experiment concerns bitter taste of KCl. The experiment in a line: KCl Latin Square-2AFC taste test, macaroni and cheese (chew and spit). It counts as in vivo, humans. The following applies: KCl 5.7% in cheese powder (0.34% in final prepared food product); for # of panelists discerning decrease in bitter taste/# of panelists tested: versus KCl standard. The protocol:
The taste test panelists used in the following examples were screened based upon and selected for their ability to perceive the bitter taste associated with potassium chloride. Only panelists capable of perceiving bitter taste participated in the following taste tests.
The effect of the test compounds on the perception of the bitter taste of KCl in prepared food products in humans was evaluated using a “chew and spit” test using a Latin Square-2AFC testing method as follows.
Edible KCl food products (“KCl test food product”) were prepared according to the following instructions. 6 cups water were boiled in stainless steel pot to a ‘rolling’ boil. Once a rolling boil was achieved, 166.5 grams of pasta were added to the boiling water. The pasta was stirred briefly to prevent the pasta from sticking to the pot. The pasta was boiled for 8.5 minutes and drained in a stainless steel colander. The pasta was shaken (approximately 15 times back and forth and twice up and down) to remove excess water. The drained pasta was returned to the stainless steel pot, and 56 grams (4 tablespoons) Land O'Lakes™ unsalted butter was added to the hot pasta. When the unsalted butter was half melted, 39.5 grams cheese powder (containing the KCl) was added in the center of the pasta. Separately, test compound was diluted in 1 ml of propylene glycol (PG; alternatively the test compound may also be diluted in a milk stock solution or a butter oil stock solution) and the resulting solution added to 99 ml of milk. 63 ml of the PG/milk solution was poured around cheese powder and gently folded into the pasta with a stainless steel spoon in order to avoid cheese clumping on spoon. KCl standards were similarly prepared by adding milk without any test compound.
The panelists tasted portions by chewing and spitting. In order to eliminate any effects of sample order, a complete Latin Square design was employed so that each possible order of sample presentation was utilized across subjects. Each sample was tested in several discrete taste test experiments. […]

Take `C/C(=C\CO)CCCC(C)CCCC(C)CCCC(C)C` (stereo not drawn) [Compound 5]: the “Conc. at Which At Least 50% of Panelists Discerned Decrease in Bitter Taste” value worked out at 10 ppm. Further, the “# of panelists discerning decrease in bitter taste/# of panelists tested” value (compound at 10 ppm) was 10 (28/50). The “# of panelists discerning decrease in bitter taste/# of panelists tested” value (compound at 20 ppm) was 20 (20/49).
